From patent EP0181578B1, “Antibiotic polypeptide, process for its preparation and its use” (Dr. Karl Thomae GmbH, priority 1984, dated 1991)
Ends that are not written are not given here.

Assays:
[1] = system: Staphylococcus epidermidis DSM 3095; assay: Resistance and sensitivity of the producer strain (strain characterisation, adaptation to rising Epidermin concentrations); assay type: cell-based; conditions: for Sonstige Resistenzen: in Flüssigkultur, marked resistance
Text: Der zur Herstellung von Epidermin verwendete Stamm wird nach Schleifer & Kloos (Int. J. Syst. Bact. 25, 50-61 (1975)) wie folgt charakterisiert: Gramfärbung : positiv Zellgröße : Durchmesser 0,5-0,8 µm Koloniengröße : ca. 1 mm Durchmesser Aussehen der Kolonien : glatt, glänzend, in der Mitte leicht erhöht Kolonienfarbe : gräulich - weiß Zellen in Kultur : oft Einzelzellen oder Zweier-Pakete, selten größere Haufen Hämolyse : auf Blutplatten ausgestrichene Kulturen zeigten starke Hämolyse Anaerobes Wachstum : der Stamm wächst auch unter anaeroben Bedingungen Lysozymempfindlichkeit: : die Zellen sind bis 2 mg/ml resistent gegen Lysozym Lysostaphinempfindlichkeit : die Zellen sind schon bei 20 µg/ml sensitiv für Lysostaphin Epidermin-Resistenz : bis 1 mg/ml nachgewiesen Sonstige Resistenzen : in Flüssigkultur zeigt der Stamm eine ausgeprägte Resistenz gegenüber Streptomycin (bis 1 mg/ml) und Spectinomycin (0,5 mg/ml) Erhöhter NaCl-Gehalt : Der Stamm wächst noch gut bis 15% Gew.-% Natriumchlorid.
(§1) Der neue Klon DSM 3095 wurde wie folgt gewonnen: Die Adaption wurde in 100 ml Erlenmeyerkölbchen mit einem seitlichen Einstich und 10 ml Nährlösung (Brain Heart Infusion) durchgeführt. Die Startkultur wurde mit 0,5 ml einer 12 Stunden alten Kultur angeimpft. Für die Kölbchen, die steigende Epidermin-Konzentrationen enthielten, dienten 0,5 ml der jeweils vorangegangenen, gutgewachsenen Kultur als Impfmaterial. Die Beurteilung des Wachstums erfolgte photometrisch bei 578 nm. […] Als Vergleichswert wurde eine unverdünnte 12 Stunden alte Kultur des literaturbekannten Vergleichsstammes NCIB 11536 ausplattiert. Nach 24 Stunden Inkubation bei 37°C zeigten sich bei der auf 10⁻⁶ verdünnten adaptierten Kultur 94 Einzelkolonien. […] Die resistenten Kolonien wurden selektioniert und auf Platten Medium 2 im Raster ausgestrichen. Nach einem Vortest auf Produktion durch Ausstechen von Stückchen mit 5 mm Durchmesser und Aktivitätstest auf Micrococcus luteus ATCC 9341 wurden produzierende Klone im Flüssigmedium getestet.

[2] = system: Propionibakteriumacnes-Stämme; assay: Plate diffusion test and minimal inhibitory concentration (Tables 2 and 3); assay type: cell-based, Propionibacterium acnes; conditions: summary of Tabellen 2 und 3
Text: (§2) Während der Herstellung und Isolierung des Epidermins wurde zur biologischen Charakterisierung der Plattendiffusionstest angewandt; nämlich zur Aufnahme des Wirkungsspektrums sowie zur Kontrolle von Produktion, Aufarbeitung und Anreicherung. Der Test wurde, wie bei Zähner und Maas, Biology of antibiotics (Springer Verlag, Berlin-Heidelberg-New York, 1972) beschrieben, in Petrischalen der Firma Greiner, Nürtingen mit Filterrondellen von 6 mm Durchmesser (Macherey & Nagel, Düren) durchgeführt. Die Filterrondellen wurden mit 20 µl der betreffenden Testflüssigkeit benetzt, bei Raumtemperatur auf einer Glasplatte getrocknet und auf die Testplatten aufgelegt. Die Testplatten wurden bei 37°C inkubiert und nach ca. 16 Stunden die Wachstumshemmung ausgewertet. Als Routinetestkeim diente Streptococcus pyogenes ATCC 8668 und, aufgrund seiner problemloseren Handhabung, Micrococcus luteus ATCC 9341. Testplatten mit Streptococcus pyogenes ATCC 8668: Der Testkeim mußte vor Herstellung der Testplatten auf Blutplatten mit Mucin [Medium: 500 ml Agar pH 7,4, 160 ml Mucinlösung (10 Gewichtsprozent), 3,5 ml Glucoselösung (50 Gewichtsprozent), 70 ml Hammelblut] frisch überimpft werden. […]

Zellen = assay: Mode of action (bactericidal, lysis of cells); assay type: cell-based; conditions: leads to lysis of the cells; same as the culture broth
[3] = Solubility (characterisation data); assay type: physicochemical
Text: (§3) Die neue Verbindung Epidermin kann durch folgende Angaben charakterisert werden: • 1. Natur: farbloses Pulver • 2. […] Methanol/Eisessig, löslich in niederen Alkoholen, unlöslich in Chloroform, Aceton, Diethylether, Petrolether. • 3. Farbreaktion auf Kieselgelplatten: Ninhydrin, Chlor/TDM (TDM=4,4'-Bis-(dimethylamino)diphenylmethan), Orcin/Schwefelsäure, Anisaldehyd/Schwefelsäure. Zerstörungsfreier Nachweis im UV-Licht bei 254 nm und durch Sprühen mit Wasser. • 4. Dünnschichtchromatographie: Es wurden Kieselgelfertigplatten 60 F₂₅₄ (Merck) verwendet. System A: Chloroform/Methanol/17% Ammoniak (2/2/1), RF = 0,73 System B: Chloroform/Methanol/17% Ammoniak (70/35/10) RF = 0,30 System C: n-Butanol/Eisessig/Wasser (4/1/1) RF = 0,05 • 5. HPLC : siehe Abb. 7. • 6. […] Molmasse: im Bereich von 2160. Je nach Isolierungsmethoden können als Anionen, z.B. Chlorid, Acetat oder Phosphat, enthalten sein. • 8. Ultraviolettabsorptionsspektrum: In wässriger Lösung langwelliges Maximum bei 267 nm (Abb. 3). • 9. Infrarotabsorptionsspektrum: IR-Spektrum einer Probe in einer Kaliumbromidtablette (Abb. 4). • 10. Kernmagnetische Resonanzspektren ¹H-NMR Spektrum: Abb. 5, ¹³C-NMR-Spektrum: Abb. 6

[4] = system: verschiedener Mikroorganismen; assay: Plate diffusion test, spectrum of activity; assay type: cell-based; conditions: for Empfindlichkeit verschiedener Mikroorganismen: Plattendiffusionstest, Tabelle 2
Text: as §2, with “werden. Nach 15-18 Stunden Inkubation bei 37°C wurde eine Salinesuspension (E₅₇₈ 0,5) hergestellt und 1 ml dieser Suspension zu 100 ml Nährboden (Medium: Pepton 10 g, Fleischextrakt 8 g, Kochsalz 3 g, Na₂HPO₄ 2 g, Glucose 10 g auf 1 l, pH 7,2) pipettiert. Die zu 10 ml Portionen gegossenen Platten waren einige Tage bei 4°C haltbar. Testplatten mit Micrococcus luteus ATCC 9341: Eine Übernachtkultur (Medium: Pepton 10 g, Fleischextrakt 8 g, Kochsalz 3 g, Na₂HPO₄ 2 g, Glucose 10 g auf 1 l, pH 7,2) wurde auf eine Extinktion von 1,0 bei 578 nm verdünnt. Mit 0,25 ml dieser Suspension wurden 100 ml Agar angeimpft und Platten zu 10 ml gegossen. Die Testplatten konnten mehrere Tage bei 4°C aufbewahrt werden.” for “werden.”

[5] = system: Staphylococcus epidermidis NCIB 11536; assay: Biophotometer test, Epidermin added in different growth phases; assay type: cell-based
Protocol: (§4) Die Versuche zur Eigenhemmung des Produzentenstammes durch das Antibiotikum und die Untersuchung auf Resistenz der selektionierten Klone wurden im Biophotometer (Eppendorf-Photometer mit Umlaufautomat) durchgeführt.
(§5) Diese Versuche können z.B. im einzelnen wie folgt durchgeführt werden: Jeweils 0,5 ml einer 12 Stunden Kultur von Staphylococcus epidermidis NCIB 11536 bzw. des selektionierten resistenten Stammes DMS 3095 wurden auf frisches Medium überimpft.
(§6) Diese Kulturen ließ man bis zu einer Extinktion von 0,043 bei 578 nm hochwachsen (Küvetten mit einer Schichtdicke von 1 cm) und verteilte sie dann in Portionen zu 7,5 ml in die Küvetten des Biophotometers (Schichtdicke 2 cm).
(§7) Die Dichte der Zellsuspension wurde im Biophotometer auf eine Transmission von 90% eingestellt. Die Inkubation erfolgte bei 37°C und maximaler Belüftung. Epidermin wurde als wässrige Lösung in unterschiedlichen Wachstumsphasen zugegeben.
(§8) Bei beiden Stämmen wurden zu Beginn und in der Mitte der logarithmischen Phase unterschiedliche Epidermin-Konzentrationen zugegeben. Die Ergebnisse sind in Abbildung 13 und 14 dargestellt.

[6] = in vivo
[7] = pH stability, retention of antibiotic activity in aqueous solutions of different pH; assay type: physicochemical
Text: as §3
Stabilitätstests und chromatographische Untersuchungen wurden am lyophylisierten Butanolextrakt durchgeführt. Die Inkubation des Extraktes mit wässrigen Lösungen verschiedener pH-Werte ergab ab pH 10 eine starke Abnahme der Aktivität, im Bereich von pH 2-7 ist das Antibiotikum jedoch stabil.

[8] = system: resistenter Klon DSM 3095; assay: Biophotometer test, Epidermin added in different growth phases; assay type: cell-based, Staphylococcus epidermidis
Protocol: as §4, §5, §6, §7, §8

[9] = system: Vergleichsstamm NCIB 11536; assay: Growth of the comparison strain on plates containing Epidermin; assay type: cell-based, Staphylococcus epidermidis; conditions: undiluted 12 h culture on plates with 0,15 mg/ml Epidermin, 48 Stunden
Protocol: as §1

CN[C@@H]1[C@H](O)[C@H](NC)[C@H]2O[C@@]3(O)C(=O)C[C@@H](C)O[C@H]3O[C@@H]2[C@H]1O [Spectinomycin]
Sonstige Resistenzen [1]: 0,5 mg/ml

[H]/N=C(/N)N[C@H]1[C@H](O)[C@@H](O)[C@H](O[C@@H]2O[C@@H](C)[C@](O)(C=O)[C@H]2O[C@@H]2O[C@@H](CO)[C@H](O)[C@@H](O)[C@@H]2NC)[C@@H](N/C(N)=N\[H])[C@@H]1O [Streptomycin]
Sonstige Resistenzen [1]: ≤ 1 mg/mL

Epidermin: ribosomal synthetisiertes, heterodet tetracyclisches Dokosapeptidantibiotikum aus Staphylococcus epidermidis DSM 3095 (IASKFICTPGCAKTGSFNSYCC; also: heterodetic tetracyclic lantibiotic, rings and modified residues not placed; UniProt P08136 31-52, looked up)
Wirksamkeit [2]: sehr gute Wirksamkeit
Einzelkolonien ([1]; adapted culture diluted to 10⁻⁶, plate with 0,5 mg/ml Epidermin, 24 Stunden 37°C): 94
Wachstum ([1]; adapted culture, 1,0 mg/ml Epidermin in Flüssigkultur): noch gut gewachsen
Resistenz ([1]; against the Epidermin it produces itself): resistent
Epidermin-Resistenz ([1]; resistance shown up to this concentration): ≤ 1 mg/mL
Wirkung (Zellen): bakterizide Wirkung
Löslichkeit ([3]; in Chloroform, Aceton, Diethylether, Petrolether): unlöslich
Löslichkeit ([3]; in Mischungen aus Wasser/Eisessig bzw. Methanol/Eisessig): Sehr gut löslich
Löslichkeit ([3]; in niederen Alkoholen): löslich
Empfindlichkeit verschiedener Mikroorganismen [4]: fast ausschließlich auf grampositive Bakterien wirken
antibakterielle Wirksamkeit ([4]; especially good against a whole series of gram-positive bacteria): sehr gute antibakterielle Wirksamkeit
Wachstumsverlauf ([5]; Abb. 13 Kurve 2: 10 µg/ml zu Beginn der logarithmischen Phase): Lyse
Wachstumsverlauf ([5]; Abb. 13 Kurve 3: 10 µg/ml in der Mitte der logarithmischen Phase): Lyse
Wachstumsverlauf ([5]; Abb. 13 Kurve 4: 2,5 µg/ml in der Mitte der logarithmischen Phase): Wachstumsverzögerung
Verträglichkeit [6]: sehr gut verträglich
toxische Wirkungen [6]: keine toxischen Wirkungen
Stabilität ([7]; bei höheren pH-Werten (above pH 7)): starker Aktivitätsabfall
Stabilität ([7]; pH=2 bis pH=7): Stabil
Stabilität ([7]; tested on lyophilised butanol extract, pH 2-7): stabil
Wachstumsverlauf ([8]; Abb. 14 Kurve 2: 120 µg/ml zu Beginn der logarithmischen Phase): geringfügige Wachstumsverzögerung
Wachstumsverlauf ([8]; Abb. 14 Kurve 3: 360 µg/ml in der Mitte der logarithmischen Phase): Wachstumsverzögerung
Lyse ([8]; all concentrations tested so far): keine Lyse
Wachstum [9]: wuchs auch nach 48 Stunden Inkubation nicht

Nisin (ITSISLCTPGCKTGALMGCNMKTATCHCSIHVSK; also: lantibiotic: thioether rings and dehydro residues, not placed; UniProt P13068 24-57, looked up) [Vergleichsantibiotikum (vgl. DE-A-2 000 818 bzw. GB-B-1 182 156), Aktivität von 40000 units, reference compound]
Empfindlichkeit verschiedener Mikroorganismen ([4]; Nisin mit einer Aktivität von 40000 units): fast ausschließlich auf grampositive Bakterien wirken
